Experimental data: patent publication US9914736B2, “TrKA kinase inhibitors, compositions and methods thereof” (Merck Sharp & Dohme Corp., priority 2014, dated 2018)

target: human TrkA receptor (Homo sapiens (Human), UniProt P04629); assay: DiscoverX PathHunter TrkA functional assay; format: cell-based; conditions: U2OS cells expressing human TrkA-ProLink, Shc1-EA and p75NTR; compound 1 h, then NGF at ~80% of maximal response for 3 h; luminescence
Sequence (P04629 33-796): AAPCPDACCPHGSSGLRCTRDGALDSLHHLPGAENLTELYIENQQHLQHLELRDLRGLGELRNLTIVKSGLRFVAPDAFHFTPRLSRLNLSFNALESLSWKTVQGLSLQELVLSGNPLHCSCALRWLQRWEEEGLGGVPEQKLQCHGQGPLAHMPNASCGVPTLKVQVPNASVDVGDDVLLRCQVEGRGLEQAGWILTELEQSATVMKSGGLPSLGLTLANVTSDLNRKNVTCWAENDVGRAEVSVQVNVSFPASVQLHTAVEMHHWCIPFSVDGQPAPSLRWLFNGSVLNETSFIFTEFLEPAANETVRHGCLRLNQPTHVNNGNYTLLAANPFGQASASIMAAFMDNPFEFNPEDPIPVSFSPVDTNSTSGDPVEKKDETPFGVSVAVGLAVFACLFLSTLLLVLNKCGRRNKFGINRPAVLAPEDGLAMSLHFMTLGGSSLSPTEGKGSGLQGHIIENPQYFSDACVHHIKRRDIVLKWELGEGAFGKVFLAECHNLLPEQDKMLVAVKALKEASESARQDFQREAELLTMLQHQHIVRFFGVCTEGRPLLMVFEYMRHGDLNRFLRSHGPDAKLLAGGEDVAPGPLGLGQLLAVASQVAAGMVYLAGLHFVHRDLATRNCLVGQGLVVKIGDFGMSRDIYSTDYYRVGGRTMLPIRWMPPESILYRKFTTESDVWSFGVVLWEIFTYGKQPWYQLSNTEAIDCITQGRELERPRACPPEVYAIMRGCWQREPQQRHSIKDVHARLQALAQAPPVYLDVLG
Description: TrkA functional activity was measured using a DiscoverX PathHunter assay. In this assay, U2OS cells express the human TrkA receptor as a fusion with the weakly complementing fragment of B-galactosidase, which DiscoverX calls “Prolink (PK)”; additionally, Shc1 is fused with a larger fragment, which is called “Enzyme Acceptor (EA)”. Activation of the TrkA receptor, upon NGF addition, results in the kinase domain being phosphorylated, resulting in subsequent recruitment of Shc1-EA protein. That recruitment results in an active B-galactosidase enzyme that is detected by addition of a chemiluminescent substrate. The human p75^NTR protein was also expressed as a co-receptor for NGF.
All reagents were purchased from DiscoverX, except for the receptor agonists (NGF, BDNF, NT3) which were purchased from Peprotech. Cells were expanded and frozen into cryovials, and stored in the vapor phase of liquid nitrogen, and thawed immediately before use. Thawed cells were added to a 384-well plate at 7500 cells/well, and allowed to incubate overnight. Compound at various concentrations was added the following morning and allowed to incubate on cells for 1 h. Then, NGF was added at a concentration sufficient to elicit ˜80% of a maximal response and allowed to incubate for 3 h at ambient temperature. DiscoverX PathHunter detection reagent was then added and the plate was further incubated for 1 h in the dark. The plate was then read via luminescence on the Perkin Elmer Envision.

Compound | IC50
CC(O)c1cc(NC(=O)c2cc(-c3ncccn3)c(C(F)(F)F)cc2F)n(-c2ccc(F)cc2)n1 (single isomer, unassigned) [Compound 99, (S or R)-2-fluoro-N-(1-(4-fluorophenyl)-3-(1-hydroxyethyl)-1H-pyrazol-5-yl)-5-(pyrimidin-2-yl)-4-(trifluoromethyl)benzamide] | 16 nM
CC(O)c1ccc(-c2cc(NC(=O)c3cc(-c4ncccn4)c(C(F)(F)F)cc3F)n(-c3ccc(F)cc3)n2)nc1 (single isomer, unassigned) [Compound 100, (S or R)-2-fluoro-N-(1-(4-fluorophenyl)-3-(5-(1-hydroxyethyl)pyridin-2-yl)-1H-pyrazol-5-yl)-5-(pyrimidin-2-yl)-4-(trifluoromethyl)benzamide] | 12 nM
CC(O)c1cnc(-c2cc(NC(=O)c3cc(-c4ccn(C)n4)c(C(F)(F)F)cc3F)n(-c3ccc(F)cc3)n2)nc1 (single isomer, unassigned) [Compound 107, (S or R)-2-fluoro-N-(1-(4-fluorophenyl)-3-(5-(1-hydroxyethyl)pyrimidin-2-yl)-1H-pyrazol-5-yl)-5-(1-methyl-1H-pyrazol-3-yl)-4-(trifluoromethyl)benzamide] | 1 nM
Cc1nc(-c2ccccc2)c(NC(=O)c2ccc(C(F)(F)F)cc2F)s1 [Compound 1, 2-fluoro-N-(2-methyl-4-phenyl-1,3-thiazol-5-yl)-4-(trifluoromethyl)benzamide] | 780 nM
O=C(NC1CC1)c1cc(NC(=O)c2ccc(C(F)(F)F)cc2Cl)n(-c2ccccc2)n1 [Compound 2, 5-({[2-chloro-4-(trifluoromethyl)phenyl]carbonyl}amino)-N-cyclopropyl-1-phenyl-1H-pyrazole-3-carboxamide] | 60 nM
Cc1csc(-c2cc(C(=O)Nc3cc(C)nn3-c3ccccc3)ccc2C(F)(F)F)n1 [Compound 3, N-(3-methyl-1-phenyl-1H-pyrazol-5-yl)-3-(4-methyl-1,3-thiazol-2-yl)-4-(trifluoromethyl)benzamide] | 5.4 nM
NC(=O)c1ccc(-c2cc(NC(=O)c3ccc(C(F)(F)F)cc3Cl)n(-c3ccccc3)n2)nc1 [Compound 4, 6-[5-({[2-chloro-4-(trifluoromethyl)phenyl]carbonyl}amino)-1-phenyl-1H-pyrazol-3-yl]pyridine-3-carboxamide] | 48 nM
Cc1csc(-c2cc(C(=O)Nc3cc(-c4cnn(C)c4)nn3-c3cc(C)[nH]n3)ccc2C(F)(F)F)n1 [Compound 5, N-(1″,5-dimethyl-1H,1″H-3,1′:3′,4″-terpyrazol-5′-yl)-3-(4-methyl-1,3-thiazol-2-yl)-4-(trifluoromethyl)benzamide] | 0.85 nM
Cc1csc(-c2cc(C(=O)Nc3cc(-c4ccccn4)nn3-c3cc(C)[nH]n3)ccc2C(F)(F)F)n1 [Compound 6, N-(5′-methyl-3-pyridin-2-yl-1′H-1,3′-bipyrazol-5-yl)-3-(4-methyl-1,3-thiazol-2-yl)-4-(trifluoromethyl)benzamide] | 1.7 nM
Cc1cc(-n2nc(C(=O)N(C)C)cc2NC(=O)c2ccc(C(F)(F)F)c(-c3ccn(C)n3)c2)[nH]n1 [Compound 7, N,N,5′-trimethyl-5-({[3-(1-methyl-1H-pyrazol-3-yl)-4-(trifluoromethyl)phenyl]carbonyl}amino)-2′H-1,3′-bipyrazole-3-carboxamide] | 32 nM
Cc1cc(-n2nc(-c3cnn(C)c3)cc2NC(=O)c2ccc(C(F)(F)F)c(-c3cccnc3)c2)n[nH]1 [Compound 8, N-(1″,5-dimethyl-1H,1″H-3,1′:3′,4″-terpyrazol-5′-yl)-3-pyridin-3-yl-4-(trifluoromethyl)benzamide] | 2100 nM
Cn1ccc(-c2cc(C(=O)Nc3cc(-c4ccncc4)nn3-c3ccc(F)c(F)c3)ccc2C(F)(F)F)n1 [Compound 9, N-[1-(3,4-difluorophenyl)-3-pyridin-4-yl-1H-pyrazol-5-yl]-3-(1-methyl-1H-pyrazol-3-yl)-4-(trifluoromethyl)benzamide] | 9.7 nM
O=C(Nc1cc(-c2ccc(=O)[nH]n2)nn1-c1ccccc1)c1ccc(C(F)(F)F)cc1Cl [Compound 10, 2-chloro-N-[3-(6-oxo-1,6-dihydropyridazin-3-yl)-1-phenyl-1H-pyrazol-5-yl]-4-(trifluoromethyl)benzamide] | 290 nM
Cn1ccc(-c2cc(C(=O)Nc3cc(-c4ccc(=O)[nH]n4)nn3-c3ccccc3)ccc2C(F)(F)F)n1 [Compound 11, 3-(1-methyl-1H-pyrazol-3-yl)-N-[3-(6-oxo-1,6-dihydropyridazin-3-yl)-1-phenyl-1H-pyrazol-5-yl]-4-(trifluoromethyl)benzamide] | 5.5 nM
Cn1ccc(-c2cc(C(=O)Nc3c(-c4ccccc4)ncn3C)ccc2C(F)(F)F)n1 [Compound 12, N-(1-methyl-4-phenyl-1H-imidazol-5-yl)-3-(1-methyl-1H-pyrazol-3-yl)-4-(trifluoromethyl)benzamide] | 19 nM
Cc1nc(-c2ccccc2)c(NC(=O)c2ccc(C(F)(F)F)c(-c3ccn(C)n3)c2)[nH]1 [Compound 13, N-(2-methyl-4-phenyl-1H-imidazol-5-yl)-3-(1-methyl-1H-pyrazol-3-yl)-4-(trifluoromethyl)benzamide] | 38 nM

Compound | IC50
Cc1nc(-c2ccccc2)c(NC(=O)c2ccc(C(F)(F)F)c(-c3ccn(C)n3)c2)n1C [Compound 14, N-(1,2-dimethyl-4-phenyl-1H-imidazol-5-yl)-3-(1-methyl-1H-pyrazol-3-yl)-4-(trifluoromethyl)benzamide] | 20 nM
Cc1nc(NC(=O)c2ccc(C(F)(F)F)c(-c3ccn(C)n3)c2)n(-c2ccccc2)n1 [Compound 15, N-(3-methyl-1-phenyl-1H-1,2,4-triazol-5-yl)-3-(1-methyl-1H-pyrazol-3-yl)-4-(trifluoromethyl)benzamide] | 150 nM
Cn1ccc(-c2cc(C(=O)Nc3cc(-c4n[nH]c(=O)n4C)nn3-c3ccccc3)ccc2C(F)(F)F)n1 [Compound 16, N-[3-(4-methyl-5-oxo-4,5-dihydro-1H-1,2,4-triazol-3-yl)-1-phenyl-1H-pyrazol-5-yl]-3-(1-methyl-1H-pyrazol-3-yl)-4-(trifluoromethyl)benzamide] | 46 nM
Cn1ccc(-c2cc(C(=O)Nc3oncc3-c3ccccc3)ccc2C(F)(F)F)n1 [Compound 17, 3-(1-methyl-1H-pyrazol-3-yl)-N-(4-phenylisoxazol-5-yl)-4-(trifluoromethyl)benzamide] | 170 nM
Cn1ccc(-c2cc(C(=O)Nc3cn[nH]c3-c3ccccc3)ccc2C(F)(F)F)n1 [Compound 18, 3-(1-methyl-1H-pyrazol-3-yl)-N-(5-phenyl-1H-pyrazol-4-yl)-4-(trifluoromethyl)benzamide] | 18 nM
Cn1ccc(-c2cc(C(=O)Nc3snnc3-c3ccccc3)ccc2C(F)(F)F)n1 [Compound 19, 3-(1-methyl-1H-pyrazol-3-yl)-N-(4-phenyl-1,2,3-thiadiazol-5-yl)-4-(trifluoromethyl)benzamide] | 2800 nM
Cn1ccc(-c2cc(C(=O)Nc3cc(-c4ccccc4)nn3C)ccc2C(F)(F)F)n1 [Compound 20, N-(1-methyl-3-phenyl-1H-pyrazol-5-yl)-3-(1-methyl-1H-pyrazol-3-yl)-4-(trifluoromethyl)benzamide] | 1400 nM
Cc1csc(-c2cc(C(=O)Nc3cc(-c4ccncc4)nn3-c3ccccc3)ccc2Cl)n1 [Compound 21, 4-chloro-3-(4-methyl-1,3-thiazol-2-yl)-N-(1-phenyl-3-pyridin-4-yl-1H-pyrazol-5-yl)benzamide] | 2.7 nM
Cc1cc(-n2nc(CC(=O)Nc3ccccn3)cc2NC(=O)c2ccc(C(F)(F)F)c(-c3ccn(C)n3)c2)[nH]n1 [Compound 22, N-{5′-methyl-3-[2-oxo-2-(pyridin-2-ylamino)ethyl]-2′H-1,3′-bipyrazol-5-yl}-3-(1-methyl-1H-pyrazol-3-yl)-4-(trifluoromethyl)benzamide] | 5.6 nM
Cc1c(Cl)cc(C(=O)Nc2cc(-c3ccncc3)nn2-c2ccccc2)cc1Cl [Compound 23, 3,5-dichloro-4-methyl-N-(1-phenyl-3-pyridin-4-yl-1H-pyrazol-5-yl)benzamide] | 670 nM
O=C(Nc1cc(-c2ccncc2)nn1-c1ccccc1)c1ccc(C(F)(F)F)c(-n2cccn2)c1 [Compound 24, N-(1-phenyl-3-pyridin-4-yl-1H-pyrazol-5-yl)-3-(1H-pyrazol-1-yl)-4-(trifluoromethyl)benzamide] | 21 nM
Cc1cc(-n2nc(C(=O)NCc3ccns3)cc2NC(=O)c2ccc(C(F)(F)F)c(-c3ccn(C)n3)c2)[nH]n1 [Compound 25, N-(isothiazol-5-ylmethyl)-5′-methyl-5-({[3-(1-methyl-1H-pyrazol-3-yl)-4-(trifluoromethyl)phenyl]carbonyl}amino)-2′H-1,3′-bipyrazole-3-carboxamide] | 1.7 nM
O=C(Nc1cc(-c2ccncc2)nn1-c1ccc(F)cc1)c1ccc(C(F)(F)F)c(-c2ncns2)c1 [Compound 26, N-[1-(4-fluorophenyl)-3-pyridin-4-yl-1H-pyrazol-5-yl]-3-(1,2,4-thiadiazol-5-yl)-4-(trifluoromethyl)benzamide] | 350 nM
Cc1cc(-n2nc(C(=O)NC3CN(C)C3)cc2NC(=O)c2ccc(C(F)(F)F)c(-c3ccn(C)n3)c2)[nH]n1 [Compound 27, 5′-methyl-N-(1-methylazetidin-3-yl)-5-({[3-(1-methyl-1H-pyrazol-3-yl)-4-(trifluoromethyl)phenyl]carbonyl}amino)-2′H-1,3′-bipyrazole-3-carboxamide] | 10 nM
Cn1ccc(-c2cc(C(=O)Nc3cc(Cc4ccc(=O)[nH]n4)nn3-c3ccccc3)ccc2C(F)(F)F)n1 [Compound 28, 3-(1-methyl-1H-pyrazol-3-yl)-N-{3-[(6-oxo-1,6-dihydropyridazin-3-yl)methyl]-1-phenyl-1H-pyrazol-5-yl}-4-(trifluoromethyl)benzamide] | 6.6 nM
Cc1nc(-c2cc(C(=O)Nc3cc(-c4ccncc4)nn3-c3ccc(F)cc3)ccc2C(F)(F)F)no1 [Compound 29, N-[1-(4-fluorophenyl)-3-pyridin-4-yl-1H-pyrazol-5-yl]-3-(5-methyl-1,2,4-oxadiazol-3-yl)-4-(trifluoromethyl)benzamide] | 530 nM
